Data taken from ChEMBL document CHEMBL3808311, “Inhibitors of Renal Outer Medullary Potassium Channel” (ACS Med Chem Lett, 2016).

Target: T1, ATP-sensitive inward rectifier potassium channel 1 (Homo sapiens, UniProt P48048)
T1 sequence (P48048 whole entry): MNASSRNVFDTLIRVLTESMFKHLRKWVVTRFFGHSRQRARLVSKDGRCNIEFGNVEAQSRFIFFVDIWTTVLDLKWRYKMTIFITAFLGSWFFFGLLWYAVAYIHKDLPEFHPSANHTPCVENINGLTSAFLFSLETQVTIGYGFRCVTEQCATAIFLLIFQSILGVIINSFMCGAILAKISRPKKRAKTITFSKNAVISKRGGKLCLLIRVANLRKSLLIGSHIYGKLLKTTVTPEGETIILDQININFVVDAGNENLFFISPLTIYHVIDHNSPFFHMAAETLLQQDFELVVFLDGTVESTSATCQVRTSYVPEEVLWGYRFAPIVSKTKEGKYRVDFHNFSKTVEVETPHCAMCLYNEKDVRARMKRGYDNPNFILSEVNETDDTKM
Experiment: Inhibition of human Kir1.1 expressed in HEK293 cells after 30 mins by thallium flux assay
Format: cell-based

Point of comparison: `CC1=C(N2CCC3(CCN(C[C@H](O)c4cc5c(cc4Cl)Cn4nnnc4-5)CC3)C2=O)COC1=O`, IC50 31 nM. Against it:
- CC1=C(N2CCC3(CCN(C[C@H](O)c4ccc5c(c4)-c4nnnn4C5)CC3)C2=O)COC1=O — 2.8-fold lower, 11 nM
- CC1=C(N2CCC3(CCN(C[C@@H](O)c4cc5c(cc4Cl)Cn4nnnc4-5)CC3)C2=O)COC1=O — 3.4-fold lower, 9 nM
- C[C@@H]1CC2(CCN(C[C@@H](O)c3ccc4c(c3)-c3nnnn3C4)CC2)C(=O)N1C1=CC(=O)OC1 — 4.4-fold lower, 7 nM
- CC1=C(N2CCC3(CCN(C[C@H](O)c4cc5c(cc4C)Cn4nnnc4-5)CC3)C2=O)COC1=O — 1.8-fold lower, 17 nM
- C[C@H]1CC2(CCN(C[C@@H](O)c3ccc4c(c3)-c3nnnn3C4)CC2)C(=O)N1C1=CC(=O)OC1 — 2.2-fold lower, 14 nM
- C[C@@H]1CC2(CCN(C[C@H](O)c3ccc4c(c3)-c3nnnn3C4)CC2)C(=O)N1C1=CC(=O)OC1 — within 1.5-fold, 32 nM
- CC1=C(N2CCC3(CCN(C[C@H](O)c4ccc5c(c4)-c4nnnn4C5)C[C@H]3F)C2=O)COC1=O (stereo partly specified) — within 1.5-fold, 43 nM
- CC1=C(N2CCC3(CCN(C[C@H](O)c4ccc5c(c4)-c4nnnn4C5)C[C@@H]3F)C2=O)COC1=O (stereo partly specified) — within 1.5-fold, 35 nM
- C[C@H]1CC2(CCN(C[C@H](O)c3ccc4c(c3)-c3nnnn3C4)CC2)C(=O)N1C1=CC(=O)OC1 — 1.6-fold lower, 20 nM
- CC1=C(N2CCC3(CCN(C[C@@H](O)c4ccc5c(c4)-c4nnnn4C5)CC3)C2=O)COC1=O — 1.6-fold lower, 19 nM
